Measured values taken from patent US20170002373A1, “METHOD OF PRODUCING LEAFY BIOMASS” (Imperial Innovations Limited, priority 2009, published 2017).

Columns and labels:
[1] = tested on: transplastomic cell suspensions from the tobacco GFP-6 line; experiment: Shoot/leafy biomass production from cell suspensions in temporary immersion bioreactor; type: cell-based, Nicotiana tabacum Petit Havana; conditions: 2-L temporary immersion bioreactor, MS media supplemented with 0.1 μM TDZ, after about six weeks
Procedure: Given that transplastomic gene expression seemed to be highest in leaf tissue we sought to develop a method for the rapid production of leaf tissue from callus/cell suspensions. […] In order to scale up the production capacity, transplastomic cell suspensions from the tobacco GFP-6 line were loaded into a 2-L bioreactor and temporally submerged in MS media supplemented with 0.1 μM TDZ. […] During the first 14 days, no growth could be detected and shoots only started to grow after this period. Possibly this lag period is related to the time needed for cells to redifferentiate from callus tissue to leafy tissue in tobacco in a similar manner to the observed switch between calli and meristematic tissues in Arabidopsis thaliana (Gordon et al, 2007).
Tobacco biomass was generated by placing about 7 grams of Nicotiana tabacum Petit Havana cell suspensions in a 2-L temporary immersion bioreactor (Ducos et al, 2007). Immersions were performed over a 40-day period with 1-L MS media supplemented with 0.1 μM Thidiazuron (TDZ, Sigma, UK) every three hours for 5 min. Additionally, the media contained 100 mg/L of spectinomycin to prevent contamination and to select for transplastomic cells. The TDZ (Thidiazuron) concentration in MS media was estimated to be optimal at 0.1 μM by researchers in Nestle, based on calli solid induction in Petri dishes (data not shown). […]

[2] = tested on: GFP-6 calli; experiment: Shoot induction from transplastomic calli on solid MS medium; type: cell-based, Nicotiana tabacum Petit Havana; conditions: data not shown; for shoot formation from calli: GFP-6 calli grown on solid MS medium with TDZ, shoots after 6 weeks

SMILES: O=C(Nc1ccccc1)Nc1cnns1 [Thidiazuron]
- shoot formation from cell suspensions [1]: a large number of shoots were produced
- shoot formation from calli [2]: able to induce shoot formation
- shoot formation from calli ([2]; listed as thidiazuron): induced the formation of shoots from calli
- optimal TDZ concentration in MS media ([2]; based on calli solid induction in Petri dishes, estimated by researchers in Nestle): 0.1 µM
